Measured values taken from PubChem BioAssay (NCI).
“And” between values parts separate entries of the source, which are not always exact repeats. Equal entries are not always repeated.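 48-hour exposure; five concentrations; linearly interpolated endpoints. Abbreviation: GI50, concentration required for 50% inhibition of growth. TGI marks complete inhibition of growth.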

Experiments:
Assay in all cases: NCI anticancer screen, dose series, 48 h
786-0 renal = test system: 786-0 renal
A498 renal = test system: A498 renal
A549 NSCLC = test system: A549 NSCLC
ACHN renal = test system: ACHN renal
CAKI-1 renal = test system: CAKI-1 renal
CCRF-CEM leukemia = test system: CCRF-CEM leukemia
COLO 205 colon = test system: COLO 205 colon
DLD-1 colon = test system: DLD-1 colon
DMS 114 small cell lung = test system: DMS 114 small cell lung
DMS 273 small cell lung = test system: DMS 273 small cell lung
EKVX NSCLC = test system: EKVX NSCLC
HCC-2998 colon = test system: HCC-2998 colon
HCT-116 colon = test system: HCT-116 colon
HCT-15 colon = test system: HCT-15 colon
HL-60(TB) leukemia = test system: HL-60(TB) leukemia
HOP-18 NSCLC = test system: HOP-18 NSCLC
HOP-62 NSCLC = test system: HOP-62 NSCLC
HT29 colon = test system: HT29 colon
IGROV1 ovarian = test system: IGROV1 ovarian
K-562 leukemia = test system: K-562 leukemia
KM12 colon = test system: KM12 colon
KM20L2 colon = test system: KM20L2 colon
LOX IMVI melanoma = test system: LOX IMVI melanoma
LXFL 529 NSCLC = test system: LXFL 529 NSCLC
M14 melanoma = test system: M14 melanoma
M19-MEL melanoma = test system: M19-MEL melanoma
MALME-3M melanoma = test system: MALME-3M melanoma
MOLT-4 leukemia = test system: MOLT-4 leukemia
NCI-H226 lung = test system: NCI-H226 lung
NCI-H23 lung = test system: NCI-H23 lung
NCI-H460 lung = test system: NCI-H460 lung
NCI-H522 lung = test system: NCI-H522 lung
OVCAR-3 ovarian = test system: OVCAR-3 ovarian
OVCAR-4 ovarian = test system: OVCAR-4 ovarian
OVCAR-5 ovarian = test system: OVCAR-5 ovarian
OVCAR-8 ovarian = test system: OVCAR-8 ovarian
RPMI-8226 leukemia = test system: RPMI-8226 leukemia
RXF 393 renal = test system: RXF 393 renal
SF-268 CNS = test system: SF-268 CNS
SF-295 CNS = test system: SF-295 CNS
SF-539 CNS = test system: SF-539 CNS
SK-MEL-2 melanoma = test system: SK-MEL-2 melanoma
SK-MEL-28 melanoma = test system: SK-MEL-28 melanoma
SK-MEL-5 melanoma = test system: SK-MEL-5 melanoma
SK-OV-3 ovarian = test system: SK-OV-3 ovarian
SN12C renal = test system: SN12C renal
SNB-19 CNS = test system: SNB-19 CNS
SNB-75 CNS = test system: SNB-75 CNS
SNB-78 CNS = test system: SNB-78 CNS
SW-620 colon = test system: SW-620 colon
TK-10 renal = test system: TK-10 renal
U251 CNS = test system: U251 CNS
UACC-257 melanoma = test system: UACC-257 melanoma
UACC-62 melanoma = test system: UACC-62 melanoma
UO-31 renal = test system: UO-31 renal
DU-145 prostate = test system: DU-145 prostate
HS 578T breast = test system: HS 578T breast
MCF7 breast = test system: MCF7 breast
MDA-MB-231 breast = test system: MDA-MB-231 breast
MDA-MB-435 = test system: MDA-MB-435
MDA-N = test system: MDA-N
NCI/ADR-RES ovarian = test system: NCI/ADR-RES ovarian
PC-3 prostate = test system: PC-3 prostate
T-47D breast = test system: T-47D breast

SMILES: OC12c3ccccc3C3CCC4(OCCO4)C3C1c1ccccc12 (stereo not given)
- TGI (786-0 renal): > 100 µM
- TGI (A498 renal): > 100 µM
- TGI (A549 NSCLC): > 100 µM
- TGI (ACHN renal): > 100 µM
- TGI (CAKI-1 renal): > 100 µM
- TGI (CCRF-CEM leukemia): > 100 µM
- TGI (COLO 205 colon): > 100 µM
- TGI (DLD-1 colon): > 100 µM
- TGI (DMS 114 small cell lung): > 100 µM
- TGI (DMS 273 small cell lung): > 100 µM
- TGI (EKVX NSCLC): > 100 µM
- TGI (HCC-2998 colon): > 100 µM
- TGI (HCT-116 colon): > 100 µM
- TGI (HCT-15 colon): > 100 µM
- TGI (HL-60(TB) leukemia): > 100 µM
- TGI (HOP-18 NSCLC): > 100 µM
- TGI (HOP-62 NSCLC): > 100 µM
- TGI (HT29 colon): > 100 µM
- TGI (IGROV1 ovarian): > 100 µM
- TGI (K-562 leukemia): > 100 µM
- TGI (KM12 colon): > 100 µM
- TGI (KM20L2 colon): > 100 µM
- TGI (LOX IMVI melanoma): > 100 µM
- TGI (LXFL 529 NSCLC): > 100 µM
- TGI (M14 melanoma): > 100 µM
- TGI (M19-MEL melanoma): > 100 µM
- TGI (MALME-3M melanoma): > 100 µM
- TGI (MOLT-4 leukemia): > 100 µM
- TGI (NCI-H226 lung): > 100 µM
- TGI (NCI-H23 lung): > 100 µM
- TGI (NCI-H460 lung): > 100 µM
- TGI (NCI-H522 lung): > 100 µM
- TGI (OVCAR-3 ovarian): > 100 µM
- TGI (OVCAR-4 ovarian): > 100 µM
- TGI (OVCAR-5 ovarian): > 100 µM
- TGI (OVCAR-8 ovarian): > 100 µM
- TGI (RPMI-8226 leukemia): > 100 µM
- TGI (RXF 393 renal): > 100 µM
- TGI (SF-268 CNS): > 100 µM
- TGI (SF-295 CNS): > 100 µM
- TGI (SF-539 CNS): > 100 µM
- TGI (SK-MEL-2 melanoma): > 100 µM
- TGI (SK-MEL-28 melanoma): > 100 µM
- TGI (SK-MEL-5 melanoma): > 100 µM
- TGI (SK-OV-3 ovarian): > 100 µM
- TGI (SN12C renal): > 100 µM
- TGI (SNB-19 CNS): > 100 µM
- TGI (SNB-75 CNS): > 100 µM
- TGI (SNB-78 CNS): > 100 µM
- TGI (SW-620 colon): > 100 µM
- TGI (TK-10 renal): > 100 µM
- TGI (U251 CNS): > 100 µM
- TGI (UACC-257 melanoma): > 100 µM
- TGI (UACC-62 melanoma): > 100 µM
- TGI (UO-31 renal): > 100 µM

SMILES: COc1ccc2c(c[n+](C)c3c4cc5c(cc4ccc23)OCO5)c1OC
- GI50 (A498 renal): 9.16 µM and 73.7 µM
- TGI (A498 renal): 21.9 µM and > 100 µM
- TGI (CAKI-1 renal): 3.63 µM
- TGI (DLD-1 colon): 3.08 µM
- TGI (DMS 114 small cell lung): 4.71 µM
- TGI (DMS 273 small cell lung): 3.72 µM
- TGI (DU-145 prostate): > 100 µM
- TGI (HCT-15 colon): 17.5 µM and > 100 µM
- TGI (HOP-18 NSCLC): 4.04 µM
- TGI (HS 578T breast): > 100 µM
- GI50 (HT29 colon): 1.78 µM and 5.12 µM
- GI50 (K-562 leukemia): 3.8 µM and 34.1 µM
- TGI (K-562 leukemia): > 100 µM
- GI50 (KM12 colon): 2.1 µM and 9 µM
- TGI (KM20L2 colon): 3.15 µM
- TGI (LXFL 529 NSCLC): 3.35 µM
- TGI (M19-MEL melanoma): 3.07 µM
- TGI (MCF7 breast): 79.6 µM
- TGI (MDA-MB-231 breast): > 100 µM
- TGI (MDA-MB-435): 43.8 µM
- TGI (MDA-N): 44.5 µM
- TGI (NCI-H522 lung): 3.64 µM
- TGI (NCI/ADR-RES ovarian): > 100 µM
- GI50 (OVCAR-5 ovarian): 2.49 µM and 22.8 µM
- TGI (PC-3 prostate): > 100 µM
- TGI (RPMI-8226 leukemia): > 100 µM
- TGI (RXF 393 renal): > 100 µM
- TGI (SK-MEL-2 melanoma): 3.54 µM
- TGI (SNB-78 CNS): 4.26 µM
- TGI (T-47D breast): > 100 µM
